Test results published in US11040976B2, “Substrate selective inhibitors of insulin-degrading enzyme (IDE) and uses thereof” (President and Fellows of Harvard College, priority 2015, dated 2021).

Key:
[1] = biological target: T1, recombinant human IDE42-1019 (Homo sapiens, UniProt P14735); assay: Protease assay with fluorogenic peptide substrate Mca-[…](Dnp)-OH; assay type: biochemical; details: fluorogenic peptide Mca-RPPGFSAFK(Dnp)-OH; for Emax: read-out: Imax (%) Proteolysis (inhibition maximum); for IC50: apparent IC50 for compounds with submaximal inhibition, read-out: IC50 (μM) Proteolysis
T1 construct: recombinant human IDE42-1019 (R&D Systems); purchased R&D Systems
T1 sequence (P14735 42-1019): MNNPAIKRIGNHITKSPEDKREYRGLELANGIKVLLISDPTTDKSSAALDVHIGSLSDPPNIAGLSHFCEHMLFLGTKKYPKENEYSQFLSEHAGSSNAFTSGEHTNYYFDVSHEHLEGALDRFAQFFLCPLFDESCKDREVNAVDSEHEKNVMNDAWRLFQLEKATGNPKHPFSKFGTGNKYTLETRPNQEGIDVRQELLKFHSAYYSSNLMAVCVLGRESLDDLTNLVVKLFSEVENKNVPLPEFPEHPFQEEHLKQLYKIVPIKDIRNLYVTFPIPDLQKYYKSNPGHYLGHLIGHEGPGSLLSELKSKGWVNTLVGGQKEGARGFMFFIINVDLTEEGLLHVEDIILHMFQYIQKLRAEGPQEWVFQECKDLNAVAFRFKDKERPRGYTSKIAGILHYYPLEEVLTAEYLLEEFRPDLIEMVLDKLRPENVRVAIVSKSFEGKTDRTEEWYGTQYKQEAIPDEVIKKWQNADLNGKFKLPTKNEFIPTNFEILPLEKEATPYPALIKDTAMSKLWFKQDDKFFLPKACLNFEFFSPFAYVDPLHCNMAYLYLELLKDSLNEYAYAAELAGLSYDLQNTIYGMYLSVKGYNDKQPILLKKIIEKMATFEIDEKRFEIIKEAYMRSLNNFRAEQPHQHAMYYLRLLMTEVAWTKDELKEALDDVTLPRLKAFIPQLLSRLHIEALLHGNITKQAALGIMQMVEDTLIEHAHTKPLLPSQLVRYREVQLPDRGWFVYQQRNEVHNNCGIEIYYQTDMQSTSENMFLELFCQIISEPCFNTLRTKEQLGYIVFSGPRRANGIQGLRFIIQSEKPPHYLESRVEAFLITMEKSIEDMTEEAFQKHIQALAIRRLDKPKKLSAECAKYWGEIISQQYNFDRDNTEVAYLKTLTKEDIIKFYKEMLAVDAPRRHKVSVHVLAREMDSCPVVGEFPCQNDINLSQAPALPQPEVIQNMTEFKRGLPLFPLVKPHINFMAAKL

[2] = biological target: T2, Human N-His6-IDE42-1019 (E. coli expressed) (Homo sapiens, UniProt P14735); assay: Fluorescence anisotropy high-throughput screening assay (displacement of probe FL-6b); assay type: binding
T2 construct: Human N-His6-IDE42-1019 (E. coli expressed); made in house; host or cells: E. coli (Rosetta 2 (DE3) pLysS, plasmid pTrcHis-A)
T2 sequence (P14735 42-1019): T1 sequence (P14735 42-1019)
Method: The fluorescence anisotropy screening method and probe FL-6b are described in PCT application PCT/US2014/064322, incorporated herein by reference.
Human N-His6-IDE42-1019 (E. coli expressed) was mixed with fluorescein-labeled macrocycle FL-6b:
[drawing 802] in 50 mM Tris buffer pH 8.0, with 1 M NaCl, at 25° C. Optimum signal was obtained using a mixture of […] probe FL-6b and 0.5 μM IDE. The “diversity-oriented (DOS) synthesis informer set” compound plates were pinned onto 384-well plates containing the enzyme-probe mixture (50 μL/well). The azetidine screen was pre-printed on 384-well plates and the enzyme-probe mixture was added (50 μL/well). The final compound concentration was 20 μM. IDE inhibitor 6bK was used as a positive control at a final concentration of 1 μM. After 30 minutes of equilibration, the increase in fluorescence anisotropy was recorded using an EnVision spectrophotometer (excitation 492 nm, emission 523 nm). The fluorescence anisotropy was independently measured twice for each screened compound. The Z-scores for each pair of measurements are plotted in FIG. 1A (DOS informer set) and FIG. 1B (azetidines), and average Z-scores are listed for exemplary compounds in Table E1.
Z-scores were calculated based on the raw anisotropy measured for each well according to Eq. 1, wherein x is the raw anisotropy value of the well, μ is the mean of the anisotropy of the negative control wells (DMSO) for the plate, and σ is the standard deviation in anisotropy of the negative control wells (DMSO) for the plate.

[3] = plateau at high inhibitor concentration
[4] = final compound concentration 20 μM (6bK control 1 μM), values without asterisk
[5] = values marked *: from the screen using the diversity-oriented synthesis (DOS) informer set of plates, 20 μM

Row | Compound | Emax [1, 3] [%] | Average Z-score (Fluorescence anisotropy) [2, 4] | IC50 [1] [µM] | Average Z-score (Fluorescence anisotropy) [2, 5] | Imax (%) Proteolysis (inhibition maximum) [1, 3] [%]
1 | Cc1ccccc1-c1ccc([C@H]2[C@H](CO)N3C(=O)CN(C(=O)c4ccncc4)C[C@@H]23)cc1 [compound 580] | 70 | −7.49 | – | – | –
2 | COc1ccccc1C#Cc1ccc([C@H]2[C@H]3CN(C(=O)C4CCC4)CCCCN3[C@H]2CO)cc1 [compound 141] | – | – | > 100 | −17.53* | –
3 | Cc1ccccc1-c1ccc([C@H]2[C@@H](CO)N3CCCCN(S(C)(=O)=O)C[C@@H]23)cc1 [compound 077] | – | −2.31 | > 100 | – | –
4 | Cc1ccccc1-c1ccc([C@@H]2[C@H]3CN(C(=O)Cc4ccccn4)CC(=O)N3[C@H]2CO)cc1 [compound 140] | 50 | −17.72 | 2.5 | – | –
5 | O=C(C1CCOCC1)N1CC(=O)N2[C@H](CO)[C@H](c3ccc(C#Cc4cccc(F)c4)cc3)[C@H]2C1 [compound 142] | ~100 | −19.27 | 6 | – | –
6 | COc1ccccc1-c1ccc([C@@H]2[C@@H](C#N)N(C(=O)NC3CCCCC3)[C@@H]2CO)cc1 [D8] | 40 | −33.77 | 1 | – | –
7 | Cc1ccccc1-c1ccc([C@@H]2[C@@H](CO)N3CCCCN(S(=O)(=O)c4ccc(F)cc4)C[C@@H]23)cc1 [compound 217] | 40 | −17.51 | – | – | –
8 | Cc1ccccc1-c1ccc([C@@H]2[C@H]3CN(C(=O)c4cccnc4)CC(=O)N3[C@H]2CO)cc1 [compound 745] | 70 | −19.67 | 2.5 | – | –
9 | Cc1ccccc1-c1ccc(C2C3CN(C(=O)c4cnccn4)CC2N3)cc1 (stereo not drawn) [C1] | 70 | −20.0 | 2 | – | –
10 | Cc1ccccc1-c1ccc([C@H]2[C@@H](CO)N3C(=O)CN(C(=O)Nc4ccc(F)cc4)C[C@H]23)cc1 [compound 510] | 30 | −21.34 | 0.5 | – | –
11 | COc1ccccc1-c1ccc([C@H]2[C@@H](CO)N3CCCCN(C(=O)NC4CCCC4)C[C@H]23)cc1 [compound 439] | 50 | −19.08 | 2.5 | – | –
12 | O=C(CC1CC1)N1CC(=O)N2[C@H](C1)[C@H](c1ccc(C#Cc3ccccc3)cc1)[C@@H]2CO [compound 187] | – | −15.91 | > 20 | – | –
13 | Cc1ccccc1-c1ccc([C@H]2[C@@H](CO)N3C(=O)CN(C(=O)Cc4ccccn4)C[C@@H]23)cc1 [compound 805] | 70 | −17.31 | 2.5 | – | –
14 | COc1cccc(C#Cc2ccc([C@@H]3[C@H](CO)N4C(=O)CN(C(C)=O)C[C@@H]34)cc2)c1 [compound 608] | ~100 | −15.34 | < 10 | – | –
15 | Cc1ccccc1-c1ccc(C2C3CN(Cc4cocn4)CC2N3)cc1 (stereo not drawn) [C9] | > 60 | −3.01 | 25 | – | –
16 | Cc1cccc(-c2ccc([C@@H]3[C@@H](CO)N4C(=O)CN(C(=O)Cc5ccccn5)C[C@@H]34)cc2)c1 [compound 348] | 40 | −11.8 | 7 | – | –
17 | Cc1ccccc1-c1ccc([C@@H]2[C@@H](CO)N3C(=O)CN(S(C)(=O)=O)C[C@@H]23)cc1 [compound 585] | 40 | – | 2.5 | −12.65* | –

Results, then the compound that gave them:

Row | Emax [1, 3] [%] | Average Z-score (Fluorescence anisotropy) [2, 4] | IC50 [1] [µM] | Average Z-score (Fluorescence anisotropy) [2, 5] | Imax (%) Proteolysis (inhibition maximum) [1, 3] [%] | Compound
18 | 90 | – | > 20 | −12.81* | – | COc1ccccc1-c1ccc([C@H]2[C@@H](CO)N3CCCCN(C(=O)c4cccnc4)C[C@H]23)cc1 [compound 983]
19 | 30 | −9.77 | 2.5 | – | – | Cc1cccc(-c2ccc([C@@H]3[C@@H](CO)N4CCCCN(S(=O)(=O)c5cccc(C)c5)C[C@@H]34)cc2)c1 [compound 496]
20 | 80 | −17.68 | – | – | – | Cc1cccc(-c2ccc([C@@H]3[C@H]4CN(C(=O)c5cccnc5)CC(=O)N4[C@H]3CO)cc2)c1 [compound 838]
21 | 50 | −17.53 | 0.6 | – | – | Cc1cccc(-c2ccc([C@@H]3[C@@H](CO)N4CCCCN(S(=O)(=O)c5cn(C)cn5)C[C@@H]34)cc2)c1 [compound 342]
22 | 30 | −3.77 | – | – | – | Cc1cccc(-c2ccc([C@@H]3[C@@H](CO)N4CCCCN(S(=O)(=O)c5cccs5)C[C@@H]34)cc2)c1 [compound 945]
23 | 40 | −19.52 | – | – | – | Cc1cccc(-c2ccc([C@@H]3[C@H](CO)N4CCCCN(S(=O)(=O)c5cn(C)cn5)C[C@@H]34)cc2)c1 [compound 795]
24 | – | −3.25 | > 100 | – | – | Cc1cccc(-c2ccc([C@@H]3[C@@H](CO)N4CCCCN(C(=O)c5cccnc5)C[C@@H]34)cc2)c1 [compound 296]
25 | 30 | −5.51 | – | – | – | Cc1cccc(-c2ccc([C@@H]3[C@@H](CO)N4CCCCN(C(=O)NC(C)C)C[C@@H]34)cc2)c1 [compound 777]
26 | 20 | −2.84 | > 10 | – | – | COc1ccccc1NC(=O)N1CCCCN2[C@H](CO)[C@@H](c3ccc(-c4cccc(C)c4)cc3)[C@@H]2C1 [compound 154]
27 | – | −2.88 | > 100 | – | – | Cc1cccc(-c2ccc([C@@H]3[C@@H](CO)N4CCCCN(CC5CC5)C[C@@H]34)cc2)c1 [compound 837]
28 | 30 | −4.36 | – | – | – | Cc1ccccc1-c1ccc([C@H]2[C@@H](CO)N3CCCCN(C(=O)Nc4cccc(F)c4)C[C@@H]23)cc1 [compound 269]
29 | 70 | −12.38 | > 10 | – | – | Cc1ccccc1-c1ccc([C@H]2[C@H](CO)N3C(=O)CN(C(=O)c4cccnc4)C[C@@H]23)cc1 [compound 491]
30 | 70 | −17.17 | 7 | – | – | COc1ccccc1-c1ccc([C@H]2[C@@H](CO)N3CCCCN(C(=O)c4ccncc4)C[C@H]23)cc1 [compound 586]
31 | 90 | −17.51 | – | – | – | Cc1cccc(-c2ccc([C@@H]3[C@@H](CO)N4C(=O)CN(C(=O)c5cnccn5)C[C@@H]34)cc2)c1 [compound 653]
32 | – | −0.68 | > 50 | – | – | Cc1cccc(-c2ccc([C@@H]3[C@@H](CO)N4CCCCN(CCC(F)(F)F)C[C@@H]34)cc2)c1 [compound 073]
33 | – | −11.37 | – | – | 70 | Cc1ccccc1-c1ccc([C@H]2[C@@H](CO)N3CCCCN(C(=O)c4cccnc4)C[C@H]23)cc1 [compound 397]
34 | 60 | −17.16 | 2 | – | – | Cc1ccccc1-c1ccc([C@H]2[C@@H](CO)N3C(=O)CN(C(=O)c4cccnc4)C[C@H]23)cc1 [compound 3421]
